Data as given in patent US20150010928A1, “MEANS AND METHODS FOR ASSESSING AN ENDOCRINE DISEASE OR DISORDER” (priority 2012, published 2015).
Marks after values point to notes of the source that are not given here.

System: male rats
Assay: Plasma metabolite profiling (GC-MS, LC-MS, SPE-LC-MS) in male rats dosed once daily over 28 days (OECD 407)
Assay type: in vivo, rat
Set-up: key to erythro-Sphingoside (d18:1) / Tricosanoic acid (C23:0) / beta-Sitosterol / Tryptophan: ratio of treated group mean to untreated control group mean
Experimental: Each dose group in the studies consisted of five rats per sex. Additional groups of each 5 male and female animals served as controls. […] All animals of the animal population were kept under the same constant temperature (20-24±3° C.) and the same constant humidity (30-70%). The animals of the animal population were fed ad libitum. The food to be used was essentially free of chemical or microbial contaminants. Drinking water was also offered ad libitum. Accordingly, the water was free of chemical and microbial contaminants as laid down in the European Drinking Water Directive 98/83/EG. The illumination period was 12 hours light followed by 12 hours darkness (12 hours light, from 6:00 to 18:00, and 12 hours darkness, from 18:00 to 6:00). […] The test substances (compounds) in the Tables 1 to 17 below were dosed and administered as described in the Table 18.
In the morning of day 7, 14, and 28, blood was taken from the retroorbital venous plexus from fasted anaesthetized animals. From each animal, 1 ml of blood was collected with EDTA as anticoagulant. The samples were centrifuged for generation of plasma. All plasma samples were covered with a N2 atmosphere and then stored at −80° C. until analysis.
For mass spectrometry-based metabolite profiling analyses plasma samples were extracted and a polar and a non-polar (lipid) fraction was obtained. For GC-MS analysis, the non-polar fraction was treated with methanol under acidic conditions to yield the fatty acid methyl esters. Both fractions were further derivatised with O-methyl-hydroxyamine hydrochloride and pyridine to convert Oxogroups to O-methyloximes and subsequently with a silylating agent before analysis. In LC-MS analysis, both fractions were reconstituted in appropriate solvent mixtures. HPLC was performed by gradient elution on reversed phase separation columns. Mass spectrometric detection which allows target and high sensitivity MRM (Multiple Reaction Monitoring) profiling in parallel to a full screen analysis was applied as described in WO2003073464.
Steroids and their metabolites were measured by online SPE-LC-MS (Solid phase extraction-LC-MS).
Following comprehensive analytical validation steps, the data for each analyte were normalized against data from pool samples. These samples were run in parallel through the whole process to account for process variability. The significance of treatment group values specific for sex, treatmentduration and metabolite was determined by comparing means of the treated groups to the means of the respective untreated control groups using WELCH-test and quantified with treatment ratios versus control and p-values.
The identification of the most important biomarkers per toxicity pattern was done by a ranking of the analytes in the tables below. Therefore the metabolic changes in reference treatments of a given pattern (shown in the table) were compared with changes of the same metabolite in other unrelated treatments. […] The maximum absolute value of the respective TVALUE was taken to indicate the most important metabolite for the pattern.

## CC(C)C(=O)Nc1ccc([N+](=O)[O-])c(C(F)(F)F)c1 [Flutamide]
m7, high dose, Table 10a
  3-O-Methylsphingosine (d18:1): 1.27 *
  Nervonic acid (C24:cis[15]1): 1.39 *
  Stearic acid (C18:0): 1.15 *
  alpha-Tocopherol: 1.55 *
  threo-Sphingosine (d18:1): 1.39 *
m7, high dose, Table 10b
  Thyroxine (T4): 0.46 *
  trans-4-Hydroxyproline: 0.79 *
m7, high dose, Table 11a
  3-Methoxytyrosine: 1.97 *
  3-O-Methylsphingosine (d18:1): 1.27 *
  Androstenedione: 19.42 *
  Behenic acid (C22:0): 1.89 *
  Dodecanol: 1.2 *
  Eicosanoic acid (C20:0): 2.11 *
  Galactose, lipid fraction: 1.44 *
  Glycerol phosphate, lipid fraction: 1.57 *
  Nervonic acid (C24:cis[15]1): 1.39 *
  Noradrenaline (Norepinephrine): 1.36 *
  Phosphatidylcholine (C18:0, C18:2): 1.38 *
  Phytosphingosine: 2.29 *
  Stearic acid (C18:0): 1.15 *
  Testosterone: 10.33 *
  Tryptophan: 1.22 *
  dihomo-gamma-Linolenic acid (C20:cis[8,11,14]3): 1.55 *
  myo-Inositol-2-phosphate, lipid fraction: 2.52 *
  threo-Sphingosine (d18:1): 1.39 *
m7, high dose, Table 11b
  3-Hydroxybutyrate: 0.53 *
  4-Hydroxy-3-methoxyphenylglycol (HMPG): 0.67 *
  18-Hydroxy-11-deoxycorticosterone: 0.75^
  21-Hydroxyprogesterone (11-Deoxycorticosterone): 0.65^
  Citrate: 0.74 *
  Coenzyme Q9: 0.73 *
  Coenzyme Q10: 0.58 *
  Corticosterone: 0.83^
  Metanephrine: 0.5 *
  Palmitoleic acid (C16:cis[9]1): 0.77 *
  Progesterone: 0.64^
  trans-4-Hydroxyproline: 0.79 *
m14, high dose, Table 10a
  3-O-Methylsphingosine (d18:1): 0.78
  5-O-Methylsphingosine (d18:1): 0.81
  Cysteine: 0.96
  Lignoceric acid (C24:0): 0.9
  Nervonic acid (C24:cis[15]1): 0.93
  Oleic acid (C18:cis[9]1): 1.1
  Stearic acid (C18:0): 1.01
  alpha-Tocopherol: 1.24
  erythro-Sphingoside (d18:1): 0.79
  threo-Sphingosine (d18:1): 0.95
m14, high dose, Table 10b
  Oleic acid (C18:cis[9]1): 1.1
  Phosphatidylcholine (C16:0, C16:0): 0.7 *
  Thyroxine (T4): 0.57^
  trans-4-Hydroxyproline: 0.89 *
m14, high dose, Table 11a
  3-Methoxytyrosine: 1.47 *
  3-O-Methylsphingosine (d18:1): 0.78
  5-O-Methylsphingosine (d18:1): 0.81
  Androstenedione: 46.48 *
  Arachidonic acid (C20:cis[5,8,11,14]4): 0.99
  Cholesterol: 1.07
  Cysteine: 0.96
  Eicosanoic acid (C20:0): 1.84 *
  Galactose, lipid fraction: 1.07
  Glycerol phosphate, lipid fraction: 1.18 *
  Indole-3-lactic acid: 1.06
  Lignoceric acid (C24:0): 0.9
  Nervonic acid (C24:cis[15]1): 0.93
  Noradrenaline (Norepinephrine): 1.85 *
  Phosphate, lipid fraction: 1.08
  Phosphatidylcholine (C18:0, C18:2): 1.17
  Phosphatidylcholine (C18:0, C20:3): 1.01
  Phosphatidylcholine (C18:0, C22:6): 0.96
  Phosphatidylcholine (C18:0,C18:1): 1.15
  Stearic acid (C18:0): 1.01
  Testosterone: 16.89 *
  Tricosanoic acid (C23:0): 0.9
  Tryptophan: 1.15
  alpha-Tocopherol: 1.16
  beta-Sitosterol: 0.91
  dihomo-gamma-Linolenic acid (C20:cis[8,11,14]3): 1.46 *
  erythro-Sphingosine (d18:1): 0.79
  threo-Sphingosine (d18:1): 0.95
m14, high dose, Table 11b
  3-Hydroxybutyrate: 0.72 *
  4-Hydroxy-3-methoxyphenylglycol (HMPG): 0.7 *
  18-Hydroxy-11-deoxycorticosterone: 0.48 *
  21-Hydroxyprogesterone (11-Deoxycorticosterone): 0.31 *
  Citrate: 0.88 *
  Coenzyme Q10: 0.43 *
  Corticosterone: 0.38 *
  Metanephrine: 0.61 *
  Palmitoleic acid (C16:cis[9]1): 0.68 *
  Phosphatidylcholine (C16:0, C16:0): 0.7 *
  Progesterone: 0.33 *
  trans-4-Hydroxyproline: 0.89 *
m28, high dose, Table 10a
  3-O-Methylsphingosine (d18:1): 1.52^
  Cysteine: 1.41 *
  Lignoceric acid (C24:0): 1.3 *
  Nervonic acid (C24:cis[15]1): 1.46 *
  alpha-Tocopherol: 1.54 *
  threo-Sphingosine (d18:1): 1.38 *
m28, high dose, Table 10b
  Phosphatidylcholine (C16:0, C16:0): 0.81 *
  Thyroxine (T4): 0.72^
  trans-4-Hydroxyproline: 0.72 *
m28, high dose, Table 11a
  3-Methoxytyrosine: 1.55 *
  3-O-Methylsphingosine (d18:1): 1.52 *
  Androstenedione: 18.79 *
  Behenic acid (C22:0): 1.34 *
  Cholesterol: 1.22 *
  Cysteine: 1.41 *
  Eicosanoic acid (C20:0): 1.93 *
  Histidine: 0.98^
  Lignoceric acid (C24:0): 1.3 *
  Nervonic acid (C24:cis[15]1): 1.46 *
  Noradrenaline (Norepinephrine): 0.93^
  Phosphatidylcholine (C18:0, C20:3): 0.94^
  Phosphatidylcholine (C18:0, C22:6): 1.34 *
  Testosterone: 8.45 *
  Threonine: 1.22 *
  alpha-Tocopherol: 1.19^
  beta-Sitosterol: 0.89^
  dihomo-gamma-Linolenic acid (C20:cis[8,11,14]3): 2.58 *
  myo-Inositol-2-phosphate, lipid fraction: 1.44 *
  threo-Sphingosine (d18:1): 1.38 *
m28, high dose, Table 11b
  4-Hydroxy-3-methoxyphenylglycol (HMPG): 0.8 *
  18-Hydroxy-11-deoxycorticosterone: 0.07 *
  21-Hydroxyprogesterone (11-Deoxycorticosterone): 0.26 *
  Citrate: 0.9
  Coenzyme Q9: 0.95^
  Coenzyme Q10: 0.4 *
  Corticosterone: 0.07 *
  Metanephrine: 0.48 *
  Palmitoleic acid (C16:cis[9]1): 0.6 *
  Phosphatidylcholine (C16:0, C16:0): 0.81 *
  Progesterone: 0.25 *
  trans-4-Hydroxyproline: 0.72 *
rat, in vivo
  3-Hydroxybutyrate: 1.08^
  Behenic acid (C22:0): 1.12 *
  Cholesterol: 1.43 *
  Coenzyme Q9: 1.04^
  Cysteine: 1.21^
  Galactose, lipid fraction: 1.23 *
  Glycerol phosphate, lipid fraction: 1.28 *
  Lignoceric acid (C24:0): 1.43 *
  Phosphatidylcholine (C16:0, C16:0): 1.12^
  Phosphatidylcholine (C18:0, C18:2): 1.13^
  Phosphatidylcholine (C18:0, C20:3): 1.14 *
  Phosphatidylcholine (C18:0, C22:6): 1.01^
  Stearic acid (C18:0): 1.29 *
  Tryptophan: 1.08 *
  alpha-Tocopherol: 1.43 *
  beta-Sitosterol: 1.24 *
  myo-Inositol-2-phosphate, lipid fraction: 1.06 *
